Results from PubChem BioAssay AID330 (DTP/NCI, 2004).
“And” between values parts separate entries of the source, which are not always exact repeats. Equal values may be shown once. Toxic doses and inconclusive results are not listed.

System: P388 leukemia ip, CD2F1 mice, survival T/C
Assay: NCI In Vivo Anticancer Drug Screen. Data for tumor model P388 Leukemia (intraperitoneal) in CD2F1 (CDF1) mice
Conditions: endpoint: median survival time, higher = longer survival
Summary of the method: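 Mice carrying the transplanted tumor received test compound or vehicle. Survival was recorded in each group, and the value is the treated-group measurement divided by that of the vehicle-treated control group.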

[1] = dose: 50.0 mg/kg/injection, schedule: Q01DX009 (ip), vehicle: saline with Tween-80
[2] = dose: 100.0 mg/kg/injection, schedule: Q01DX009 (ip), vehicle: saline with Tween-80
[3] = dose: 200.0 mg/kg/injection, schedule: Q01DX009 (ip), vehicle: saline with Tween-80
[4] = dose: 400.0 mg/kg/injection, schedule: Q01DX009 (ip), vehicle: saline with Tween-80
[5] = dose: 12.5 mg/kg/injection, schedule: Q01DX009 (ip), vehicle: saline with Tween-80
[6] = dose: 25.0 mg/kg/injection, schedule: Q01DX009 (ip), vehicle: saline with Tween-80

Compound: Nc1nc(=S)c2ncn(C3CC(O)C(CO)O3)c2[nH]1 (stereo not given)
- T/C (dose: 10.0 mg/kg/injection, schedule: Q01DX009 (ip), vehicle: Klucel (hydroxypropylcellulose) (HPC)): 118 % of control
- T/C (dose: 12.5 mg/kg/injection, schedule: Q01DX005 (ip), vehicle: saline): 118 % of control
- T/C (dose: 12.5 mg/kg/injection, schedule: Q01DX005 (iv), vehicle: saline): 101 % of control
- T/C (dose: 12.5 mg/kg/injection, schedule: Q01DX009 (ip), vehicle: Klucel (hydroxypropylcellulose) (HPC)): 122 % of control
- T/C (dose: 20.0 mg/kg/injection, schedule: Q01DX009 (ip), vehicle: Klucel (hydroxypropylcellulose) (HPC)): 95 % of control
- T/C (dose: 25.0 mg/kg/injection, schedule: Q01DX005 (ip), vehicle: saline): 109 % of control
- T/C (dose: 25.0 mg/kg/injection, schedule: Q01DX005 (iv), vehicle: saline): 102 % of control
- T/C (dose: 25.0 mg/kg/injection, schedule: Q01DX009 (ip), vehicle: saline sonified): 168 % of control
- T/C (dose: 25.0 mg/kg/injection, schedule: Q01DX009 (ip), vehicle: saline): 117 % of control
- T/C (dose: 50.0 mg/kg/injection, schedule: Q01DX005 (ip), vehicle: saline): 109 % of control
- T/C (dose: 50.0 mg/kg/injection, schedule: Q01DX005 (iv), vehicle: saline): 102 % of control and 106 % of control
- T/C (dose: 50.0 mg/kg/injection, schedule: Q01DX009 (ip), vehicle: Klucel (hydroxypropylcellulose) (HPC)): 118 % of control
- T/C [1]: 162 % of control
- T/C (dose: 100.0 mg/kg/injection, schedule: Q01DX005 (iv), vehicle: saline): 103 % of control and 108 % of control
- T/C (dose: 100.0 mg/kg/injection, schedule: Q01DX009 (ip), vehicle: Klucel (hydroxypropylcellulose) (HPC)): 113 % of control
- T/C (dose: 100.0 mg/kg/injection, schedule: Q01DX009 (ip), vehicle: saline): 169 % of control
- T/C (dose: 200.0 mg/kg/injection, schedule: Q01DX005 (ip), vehicle: saline): 153 % of control
- T/C (dose: 200.0 mg/kg/injection, schedule: Q01DX005 (iv), vehicle: saline): 122 % of control
- T/C (dose: 200.0 mg/kg/injection, schedule: Q01DX009 (ip), vehicle: saline): 114 % of control

Compound: OC(c1ccc(F)cc1)(C1CC1)C1CC1
- T/C (dose: 100.0 mg/kg/injection, schedule: Q01DX001 (ip), vehicle: saline + alcohol): 98 % of control
- T/C (dose: 200.0 mg/kg/injection, schedule: Q01DX001 (ip), vehicle: saline + alcohol): 99 % of control
- T/C (dose: 400.0 mg/kg/injection, schedule: Q01DX001 (ip), vehicle: saline + alcohol): 101 % of control

Compound: O=C1NN=COc2ccccc21
- T/C [1]: 106 % of control and 108 % of control and 93 % of control
- T/C [2]: 100 % of control and 102 % of control and 105 % of control
- T/C [3]: 106 % of control and 115 % of control and 121 % of control
- T/C [4]: 110 % of control and 119 % of control

Compound: CC1=C(C)C(=O)OC(C(C)C2CCC3C4CC5OC56C(O)CCC(=O)C6(C)C4CCC23C)C1 (stereo not given)
- T/C (dose: 11.3 mg/kg/injection, schedule: Q01DX009 (ip), vehicle: Klucel (hydroxypropylcellulose) (HPC)): 101 % of control
- T/C (dose: 22.6 mg/kg/injection, schedule: Q01DX009 (ip), vehicle: Klucel (hydroxypropylcellulose) (HPC)): 101 % of control
- T/C (dose: 45.2 mg/kg/injection, schedule: Q01DX009 (ip), vehicle: Klucel (hydroxypropylcellulose) (HPC)): 100 % of control

Compound: C=CCC1(O)CC2NC(C1)[C@@H]1OC(C)(C)O[C@H]21 (stereo not given in full)
- T/C (dose: 50.0 mg/kg/injection, schedule: Q01DX005 (ip), vehicle: Klucel (hydroxypropylcellulose) (HPC)): 92 % of control
- T/C (dose: 100.0 mg/kg/injection, schedule: Q01DX005 (ip), vehicle: Klucel (hydroxypropylcellulose) (HPC)): 87 % of control
- T/C (dose: 200.0 mg/kg/injection, schedule: Q01DX005 (ip), vehicle: Klucel (hydroxypropylcellulose) (HPC)): 94 % of control

Compound: Cn1c(=O)c2nc(-c3ccccc3)c(-c3ccccc3)nc2n(C)c1=O
- T/C [5]: 96 % of control
- T/C [6]: 96 % of control
- T/C [1]: 107 % of control
- T/C [2]: 107 % of control

Compound: O=[n+]1c2c(n([O-])c3ccccc31)C(Br)CCCC2Br (stereo not given)
- T/C (dose: 60.0 mg/kg/injection, schedule: Q01DX005 (ip), vehicle: saline with Tween-80): 100 % of control
- T/C (dose: 120.0 mg/kg/injection, schedule: Q01DX005 (ip), vehicle: saline with Tween-80): 95 % of control
- T/C (dose: 240.0 mg/kg/injection, schedule: Q01DX005 (ip), vehicle: saline with Tween-80): 89 % of control

Compound: CN(/N=N/N(C)c1ccccc1)c1ccccc1
- T/C [6]: 103 % of control and 93 % of control
- T/C (dose: 44.0 mg/kg/injection, schedule: Q01DX009 (ip), vehicle: saline with Tween-80): 118 % of control
- T/C [1]: 101 % of control and 107 % of control
- T/C (dose: 66.0 mg/kg/injection, schedule: Q01DX009 (ip), vehicle: saline with Tween-80): 104 % of control
- T/C [2]: 98 % of control and 110 % of control and 90 % of control
- T/C (dose: 150.0 mg/kg/injection, schedule: Q01DX009 (ip), vehicle: saline with Tween-80): 100 % of control
- T/C [3]: 103 % of control and 94 % of control
- T/C [4]: 100 % of control and 86 % of control

Compound: N#Cc1ccc([N+](=O)[O-])o1
- T/C [5]: 100 % of control
- T/C [6]: 90 % of control
- T/C [1]: 95 % of control
